Each structure is given as a SMILES string.

What all share (assay type): cell-based
Test [1] addresses T1, SP174 receptor (Homo sapiens, UniProt Q9BPV8).
T1 sequence (Q9BPV8 1-333 isoform Q9BPV8-2): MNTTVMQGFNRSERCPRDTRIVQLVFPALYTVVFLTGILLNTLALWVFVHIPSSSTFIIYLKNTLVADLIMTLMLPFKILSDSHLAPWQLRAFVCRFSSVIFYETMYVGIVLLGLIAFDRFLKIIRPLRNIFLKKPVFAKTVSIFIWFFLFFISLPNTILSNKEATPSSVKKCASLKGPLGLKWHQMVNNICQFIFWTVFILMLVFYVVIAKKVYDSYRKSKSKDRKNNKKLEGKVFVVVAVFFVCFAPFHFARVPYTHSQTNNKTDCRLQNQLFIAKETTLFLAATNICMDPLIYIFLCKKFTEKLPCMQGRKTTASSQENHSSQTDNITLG
The test can be described thus: FLIPR assay, HEK293f cells transiently co-transfected with SP174 receptor and chimera G protein Gq/i3. Set-up: expressed in transfected cells; host or cells: HEK293f cells (G-418-resistant HEK293), transient, lipofectamine. To be noted: Example 1; for specific activity on SP174 transfected cells (FLIPR screen of ligand collection): versus vector/Gq/i3 negative control; for EC50: HEK293f cells co-transfected with SP174 and Gq/i3. From the text: SP174 receptor cDNA was subcloned into the pcDNA3.1 expression vector (Invitrogen) and transiently co-transfected with chimera G protein Gq/i3 into HEK293f cells using lipofectamine (Gibco-BRL). HEK293f cells are the HEK293 cells which are resistant to G-418. Chimera G protein Gq/i3 was constructed by replacing the C-terminus five amino acid residues of human Gqa with the five amino acid residue of human Gi3a (Conklin et al., Nature, 363, p274-276). pcDNA 3.1 vector DNA was also co-transfected with chimera G protein Gq/i3 as a negative control. The transfected cells were seeded into 96 well plates and incubated overnight at 37° C. in a tissue culture incubator. The growth medium was aspirated and replaced with […] of loading medium (DMEM containing 1% FBS, […]/10% pluronic acid and 2.5 mM Probenecid) and incubated for 1 hour at 37° C. The cells were subsequently washed 3 times with Hank's BSS buffer containing 20 mM HEPES, 2.5 mM Probenecid, and 0.1% BSA using the gentle setting in a Denley cell washer (Denley Instruments). The washed cells were placed in a Fluorometric Imaging Plate Reader (FLIPR) and changes in cellular fluorescence recorded after the addition of various dilutions of tissue extract fractions.
EC50 values for ADP, ADPβS, 2-MeS-ADP, 2-MeS-ATP, 2-Cl-ATP and IDP were […], respectively, and the order of potency was 2-MeS-ATP=2-MeS-ADP>ADP=ADPβS>IDP.
The SP174 receptor assay was similar as Example 1 a. The SP174 receptor cDNA was subcloned into the pcDNA3.1 expression vector (Invitrogen) and transiently co-transfected with Gq/i3 into HEK293f cells using lipofectamine (Gibco-BRL). pcDNA 3.1 vector DNA was also co-transfected with Gq/i3 as a negative control. A variety of nucleotides, RBI small moleculars, and in-house peptide collection were screened. Twelve compounds were identified to be the agonists of the SP174 receptor. Their fluorecence change with different amount of the compounds were detected, the data were processed using Prism software to obtain their EC50 value. Other agonists can be identified using similar approaches. To identify antagonists of the SP174 receptor, two-addition approach was adapted. First, the compounds to be screened were added to the SP174 receptor transfected cells, after 5 minutes 100 nM of ADP were added as second addition and the fluorescence changes were recorded. In this assay antagonists inhibit the fluorecence signal of ADP.

Test [2] addresses T1, SP174 receptor. The test can be described thus: SP174 receptor ligand identification, Ca2+ FLIPR in transfected mammalian cells (description section). Conditions: values given in the description; SP174 in pcDNA3.1 transfected into mammalian cells; read-out: EC50 for SP174 (agonists). Set-up: expressed in transfected cells. The procedure:
(§1) In order to identify SP174 receptor ligands the SP174 open reading frame was subcloned into the pcDNA3.1 expression vector under the control of the CMV promoter and transfected into mammalian cells. After allowing two days for receptor expression, the transfected cells were seeded into 96 well plates, loaded with the Ca^2+ sensitive Fluo-3AM dye and challenged with various compounds. The peak increments in Ca^2+ evoked by the test compounds were measured using the Fluorometric Imaging Plate Reader (FLIPR) system.

The target of test [3] is T1, SP174 receptor. The test can be described thus: cAMP assay (inhibition of adenylyl cyclase) in SP174 receptor cells. Set-up: expressed in transfected cells. As for the experimental part: as §1, with “system. The endogenous ligand of the SP174 receptor was purified from rat spinal cords using a series of chromatography steps and its structure was identified as being ADP by Mass spectroscopy. […] In addition to ADP, other agonists were also identified for SP174.” for “system.”
The SP174 receptor cDNA was stably transfected into HEK293f cells according standard procedures. The SP174 receptor stable cell line and wild type cell grown on 12-well plates were incubated for 2 hr with 200 μl of medium plus 5 μCi of [3H]adenine/ml. Then 50 μl of Hepes (250 mM, pH 7.5, 50 μM Forskolin, 200 μM IBMX) with the compound to be screened is added to the cells and incubated for 10 minutes at 37° C. Incubations were terminated by addition of 0.8 ml of 5% trichloroacetic acid. [^3H]cAMP was purified using Dowex and alumina chromatography as previously described (Harden et al., Mol. Pharmacol. 21:570-580, 1982).
On the technique in general: Cyclic AMP is a second messenger, typically raised through Gs and lowered through Gi signalling.

Turning to `Nc1nc(Cl)nc2c1ncn2[C@@H]1O[C@H](COP(=O)(O)OP(=O)(O)O)[C@@H](O)[C@H]1O` [2-Cl-ADP], the “specific activity on SP174 transfected cells (FLIPR screen of ligand collection)” value (shortened to “specific activity”) in test [1] is recorded as “specifically active”.

Regarding `Nc1nc(Cl)nc2c1ncn2[C@@H]1O[C@H](COP(=O)(O)OP(=O)(O)OP(=O)(O)O)[C@@H](O)[C@H]1O` [2-Cl-ATP], the EC50 in test [2] stood at 8 nM; in test [1] it was 94 nM.

Consider `CSc1nc(N)c2ncn([C@@H]3O[C@H](COP(=O)(O)OP(=O)(O)O)[C@@H](O)[C@H]3O)c2n1` [2-MeS-ADP], for which, in test [2], the EC50 came out at 0.32 nM. Besides, in test [1], a half-maximal effect (EC50) was put at 21 nM and the “specific activity” value is reported as “specifically active”.

`CSc1nc(N)c2ncn([C@@H]3O[C@H](COP(=O)(O)OP(=O)(O)OP(=O)(O)O)[C@@H](O)[C@H]3O)c2n1` [2-MeS-ATP]: the results for the EC50 in test [2] and in test [1] were 8 nM and 97 nM, respectively.

Turning to `Nc1ncnc2c1ncn2[C@@H]1O[C@H](COP(=O)(O)OP(=O)(O)O)[C@@H](O)[C@H]1O` [ADP], the results for the EC50 in test [2] and in test [1] were 1.6 nM and 80 nM, respectively. In addition, the “mode of activation of the SP174 receptor” value in test [3] is listed as “inhibition of adenylyl cyclase”. Besides, the “specific activity” value in test [1] is given as “activate specifically”.

Turning to `Nc1ncnc2c1ncn2[C@@H]1O[C@H](COP(=O)(O)OP(O)(O)=S)[C@@H](O)[C@H]1O` [ADPβS], in test [2], the EC50 was found to be 8 nM. For the same compound, in test [1], a half-maximal response (EC50) required 43 nM and the “specific activity” value is given as “specifically active”.

For `Nc1ncnc2c1ncn2[C@@H]1O[C@H](COP(=O)(O)OP(=O)(O)OP(=O)(O)OC[C@H]2O[C@@H](n3cnc4c(N)ncnc43)[C@H](O)[C@@H]2O)[C@@H](O)[C@H]1O` [AP3A], in test [2], the EC50 came out at 8 nM. The “specific activity” value in test [1] is reported as “specifically active”.

In the case of `Nc1ncnc2c1ncn2[C@@H]1O[C@H](COP(=O)(O)OP(=O)(O)OP(=O)(O)O)[C@@H](O)[C@H]1O` [ATP], the EC50 in test [2] came out at 0.32 nM.

For `Nc1ncnc2c1ncn2[C@@H]1O[C@H](COP(=O)(O)OP(=O)(O)OP(O)(O)=S)[C@@H](O)[C@H]1O` [ATPγS], the EC50 in test [2] was 8 nM.

In the case of `O=c1[nH]cnc2c1ncn2[C@@H]1O[C@H](COP(=O)(O)OP(=O)(O)O)[C@@H](O)[C@H]1O` [IDP], the EC50 in test [2] was 200 nM; in test [1] it was 196 nM.

As a reminder, the EC50 is the concentration at which the effect is half-maximal.

The record behind these values is patent US20030059857A1, “G-protein coupled receptor and methods” (priority 2001, published 2003).
